The NIST ThermoML archive (doi:10.1021/je800635g)

Assay: xn = mol fraction of the nth substance listed
Conditions: Liquid, Falling or rolling sphere viscometry

Cc1ccc(C)cc1 [1,4-dimethylbenzene] + CC(=O)O
viscosity [mPa·s]
Conditions | x1 = 0.1001 | x1 = 0.1997 | x1 = 0.3001 | x1 = 0.3997 | x1 = 0.5 | x1 = 0.6002 | x1 = 0.6988 | x1 = 0.7994 | x1 = 0.8994
313.15 K, 100 kPa | 0.725 | 0.63 | 0.571 | 0.522 | 0.52 | 0.514 | 0.508 | 0.505 | 0.499
313.15 K, 800 kPa | 0.731 | 0.635 | 0.576 | 0.527 | 0.524 | 0.519 | 0.512 | 0.509 | 0.503
313.15 K, 1600 kPa | 0.737 | 0.641 | 0.583 | 0.532 | 0.53 | 0.524 | 0.517 | 0.514 | 0.508
313.15 K, 2400 kPa | 0.743 | 0.647 | 0.585 | 0.537 | 0.535 | 0.529 | 0.522 | 0.519 | 0.513
313.15 K, 3200 kPa | 0.749 | 0.653 | 0.591 | 0.543 | 0.541 | 0.534 | 0.527 | 0.525 | 0.518
333.15 K, 100 kPa | 0.587 | 0.508 | 0.459 | 0.424 | 0.419 | 0.418 | 0.415 | 0.412 | 0.407
333.15 K, 800 kPa | 0.592 | 0.514 | 0.464 | 0.429 | 0.424 | 0.423 | 0.419 | 0.416 | 0.411
333.15 K, 1600 kPa | 0.598 | 0.52 | 0.47 | 0.434 | 0.429 | 0.428 | 0.424 | 0.422 | 0.416
333.15 K, 2400 kPa | 0.605 | 0.526 | 0.476 | 0.44 | 0.435 | 0.433 | 0.429 | 0.427 | 0.421
333.15 K, 3200 kPa | 0.611 | 0.532 | 0.482 | 0.445 | 0.44 | 0.438 | 0.435 | 0.432 | 0.427
353.15 K, 100 kPa | 0.481 | 0.419 | 0.378 | 0.351 | 0.347 | 0.342 | 0.341 | 0.339 | 0.339
353.15 K, 800 kPa | 0.487 | 0.425 | 0.384 | 0.356 | 0.352 | 0.347 | 0.346 | 0.343 | 0.344
353.15 K, 1600 kPa | 0.493 | 0.431 | 0.39 | 0.361 | 0.357 | 0.352 | 0.351 | 0.349 | 0.349
353.15 K, 2400 kPa | 0.499 | 0.437 | 0.396 | 0.367 | 0.363 | 0.357 | 0.356 | 0.354 | 0.354
353.15 K, 3200 kPa | 0.505 | 0.444 | 0.402 | 0.372 | 0.368 | 0.363 | 0.361 | 0.359 | 0.359
373.15 K, 100 kPa | 0.399 | 0.353 | 0.314 | 0.297 | 0.293 | 0.289 | 0.287 | 0.285 | 0.288
373.15 K, 800 kPa | 0.405 | 0.359 | 0.319 | 0.302 | 0.298 | 0.293 | 0.291 | 0.289 | 0.293
373.15 K, 1600 kPa | 0.412 | 0.365 | 0.326 | 0.307 | 0.303 | 0.299 | 0.296 | 0.294 | 0.298
373.15 K, 2400 kPa | 0.418 | 0.372 | 0.332 | 0.313 | 0.309 | 0.304 | 0.302 | 0.3 | 0.303
373.15 K, 3200 kPa | 0.424 | 0.378 | 0.338 | 0.319 | – | – | – | – | –
